Assay results reported in patent US10968214B2, “KRas G12C inhibitors” (Eli Lilly and Company, priority 2018, dated 2021).
Read-outs that look alike come from different tables or passages of the source.

Legend:
[1] = tested on: SW756; assay: CellTiterGlo Cell Proliferation Assay, SW756; type: cell-based; conditions: Homo sapiens, KRas G12C, Cervix, 96 hr
Description: (§1) A panel of tumor cell lines harboring KRas G12C or other KRas mutations are collected (Table 6). All cell lines are from ATCC or other sources indicated.
(§2) Typically cells are cultured in RPMI1640 or Dulbecco's modified Eagle's medium (DMEM, GIBCO) supplemented with 10% FBS (GIBCO, Invitrogen). For 2D culture cells (4×10^3/well) maintained in growth medium described above, are plated onto 96 well tissue culture plates Corning® Cat. 3603) a day before the treatment. For 3D culture 8000 cells/well are seeded onto 96 well ultra-low attachment tissue culture plates (Corning, #3474). The cells are treated compound for 96 hr, and then are analyzed for viability using the CellTiterGlo® Luminescent Cell Viability Assay® (Promega #G7572 for 2D and Promega #G9683 for 3D cultures) according to manufacturer's instructions and an EnVision™ plate reader. Nonlinear regression and sigmoidal dose-response curves are used to calculate the half maximal inhibitory concentration (IC50) with GraphPad Prism 4® software.

[2] = tested on: H1792; assay: CellTiterGlo Cell Proliferation Assay, H1792; type: cell-based; conditions: Homo sapiens, NCI-H1792, KRas G12C, Lung, 96 hr
Description: as §1, §2

[3] = tested on: SW1463; assay: Combination 4 day growth assay (Cell TiterGlo), SW1463; type: cell-based; conditions: Homo sapiens, SW1463, 96 h, single treatment, read-out: Absolute IC50
Description: (§3) Cell lines for this study are obtained from ATCC and grown under ATCC recommended conditions, except for LXFA-983L, which is obtained from Oncotest/Charles Rivers Laboratories, Wilmington, Mass. and D122-96, which is obtained from L. Eisenbach (Weizman Institute of Science, Rehovot, Israel)—both grown under recommended conditions. […] The proliferation assay is performed as a 4 day growth assay using Cell TiterGlo® as the readout. Briefly, cells are plated in 96-well cell culture plates and allowed to adhere overnight at 37° C. The following day, cells are treated with compounds, either single treatments or combination treatments. First, the testing compounds are serially diluted in DMSO, followed by dilution into media as a 5× concentration with 1% DMSO, and finally added to cells in media to dilute to 1×. The cells are incubated at 37° C. for 4 more days. At the end of the incubation period, Cell TiterGlo® reagent is mixed and added to the wells. After 10 minutes, the luminescence is read by a Perkin Elmer Envision instrument. Absolute IC50 values generated by a 4-parameter logistics model for the single and combination treatments are generated, followed by combination indexes for each combination treatment and cell line. The combination IC50 values are adjusted based on the total concentration of each compound when added together. […] The combination index (CI) measures the degree to which the potency of a combination therapy differs from the expected-if-additive potency and is based on the Loewe definition of additivity.
(§4) [formula] Where • CAy and CBy are the concentrations of therapies A and B that produce an effect, y, when given in combination • ICAy and ICBy are the concentrations of A and B that produce an effect, y, when given individually The biological interpretation of the combination index is as follows: synergistic if the combination index <0.5, additive if the combination index is between 0.5 and 2, and antagonistic if the combination index is >2.

[4] = tested on: CT-26-H4/KRas G12C; assay: CT-26-H4/KRas G12C mouse syngeneic model, immuno-therapy combination; type: in vivo; conditions: Example 1 30 mg/kg BID × 21 PO, PD-L1 antibody 500 ug/mouse Q7D × 3 IP, PD-1 antibody 250 ug/mouse BIW × 3 IP
Source text: A mouse syngeneic model is used to evaluate the effects of KRas G12C inhibition and immuno-therapy combination. In this model, the KRas G12D mutation is converted to KRas G12C mutation by CRISPR knock-in in the CT-26 cell line, a mouse colorectal tumor cell line. The KRas G12C knock-in is confirmed by genetic and functional characterization. The engineered cell line is named CT-26-H4/KRas G12C. These cells are implanted to the Balb/c mice, and the compound treatment is started 6 days post tumor cell implantation. PD-1 and PD-L1 inhibitors are known in the art and include durvalumab, pembrolizumab, and nivolumab. […] After 3 weeks, compound treatment is stopped and all tumors in monotherapy groups with the exception of 1 animal in the anti-PD-1 group started to regrow. However, the tumors in the two combination groups have no signs of regrowth.

[5] = tested on: Calu-1; assay: CellTiterGlo Cell Proliferation Assay, Calu-1; type: cell-based; conditions: Homo sapiens, KRas G12C, Lung, 96 hr
Description: as §1, §2

[6] = tested on: H358; assay: Combination 4 day growth assay (Cell TiterGlo), H358; type: cell-based; conditions: Homo sapiens, NCI-H358, 96 h, single treatment, read-out: Absolute IC50
Description: as §3, §4

[7] = read-out: IC50 (μM) in 2 D cell proliferation
[8] = read-out: IC50 (μM) in 3 D spheroid cell proliferation

IC50 [1, 7]: 1.15 µM | IC50 [1, 8]: 7.83 µM | IC50 [2, 7]: 3.93 µM | IC50 [2, 8]: 3.84 µM | IC50 [3]: 14.1 nM | IC50 [5, 7]: 0.024 µM | IC50 [5, 8]: 0.001 µM | IC50 [6]: 41.9 nM
Compound: C=CC(=O)N1CCN(c2ncnc3c(F)c(-c4ccc(F)c5sc(N)nc45)c(Cl)cc23)CC1 [Example 1, 1-{4-[7-(2-Amino-7-fluoro-1,3-benzothiazol-4-yl)-6-chloro-8-fluoroquinazolin-4-yl]piperazin-1-yl}prop-2-en-1-one]
Complete Response (% CR) ([4]; 40 days post treatment): 0% | Complete Response (CR)/group mice ([4]; 40 days post treatment): 0/10 | % Tumor Growth Inhibition ([4]; End of treatment at day 28): 96% | Complete Response (% CR) ([4]; End of treatment at day 28): 10% | Complete Response (CR)/group mice ([4]; End of treatment at day 28): 1/10
